Assay results reported in patent US11534457B2, “Use of dextran sulfate” (priority 2017, dated 2022).

Tested on: severe traumatic brain injury (sTBI)
Experiment: sTBI in rats, brain gene expression arrays and pathway analysis (Example 9)
Format: in vivo, Male Wistar rats
Method: The experimental protocol used in this study was approved by the Ethical Committee of the Catholic University of Rome, according to international standards and guidelines for animal care. Male Wistar rats of 300-350 g body weight were fed with standard laboratory diet and water ad libitum in a controlled environment. As the anesthetic mixture, the animals received 35 mg/kg b.w. ketamine and 0.25 mg/kg body weight midazolam by i.p. injection. Severe traumatic brain injury (sTBI) was induced by dropping a 450 g weight from 2 m height on to the rat head that had been protected by a metal disk previously fixed on the skull, according to the “weight drop” impact acceleration model (Marmarou et al., A new model of diffuse brain injury in rats. Part I: Pathophysiology and biomechanics. J Neurosurg. 1994; 80: 291-300). […] At the end of each period of treatment, rats were anesthetized again and then immediately sacrificed.
LMW-DS (Tikomed AB) was provided at a stock concentration of 20 mg/ml and was kept in a temperature-monitored refrigerator at 4° C. LMW-DS aliquots were diluted to the appropriate dosing concentration in sterile saline prior to delivery of a single subcutaneous injection.
Three doses of LMW-DS were administered subcutaneously 30 minutes post-TBI. The animals were sacrificed at 2 days post-TBI. The animals were divided into the following subgroups:
Three doses of LMW-DS were administered subcutaneously 30 minutes post-TBI. The animals were sacrificed at 7 days post-TBI. The animals were divided into the following subgroups:
An in vivo craniectomy was performed on all animals during anesthesia. After carefully removing the rat's skull, the brain was exposed and removed with a surgical spatula and quickly dropped in RNALater and preserved at 4° C. for further processing.
RNA extraction and array processing was carried out by SourceBioscience. The arrays used were the Agilent Rat expression arrays.
Statistical analysis was carried out using the Metaboanalyst software package. Gene expression changes of 10% with a p<0.05 were regarded as significant.
Pathway analysis of the differentially regulated genes was carried out using the Ingenuity pathway analysis package. The analysis was performed with special reference to pathways and molecular processes and diseases associated with neurodegenerative disease, including dementia, Alzheimer's disease, ALS, TBI and stroke, and with scarring and fibrosis, including glaucoma and normal pressure hydrocephalus (NPH) after subarachnoid haemorrhage.

[1] = TBI + 1 mg/kg LMW-DS, 2 days after TBI
[2] = TBI + 1 mg/kg LMW-DS, 7 days after TBI
[3] = TBI + 1 mg/kg LMW-DS, 7 days after TBI, relative to control
[4] = TBI + 1 mg/kg LMW-DS, after 7 days, TBI: Activated
[5] = TBI + 1 mg/kg LMW-DS, after 7 days, TBI: Inhibited
[6] = TBI + 5 mg/kg LMW-DS, 2 days after TBI
[7] = TBI + 5 mg/kg LMW-DS, 7 days after TBI

low molecular weight dextran sulfate [LMW-DS]
0.033: z score: Synthesis of lipid [2]
−1.01: z score: Cell movement [2]
1.264: z score: Vaso-occlusion [2]
−0.447: Ingenuity canonical pathway NF-κB Signaling, z score [3] | Ingenuity canonical pathway Opioid Signaling Pathway, z score [3]
1.342: Ingenuity canonical pathway Endothelin-1 Signaling, z score [3] | Ingenuity canonical pathway Synaptic Long Term Depression, z score [3]
−0.349: z score: Differentiation of connective tissue cells [2]
0.905: z score: Cancer [7]
2.084: z score: Cell movement of endothelial cells [7]
−0.676: z score: Apoptosis [7]
1.879: z score: Cell viability [7]
−0.155: z score: Adenocarcinoma [7]
1: Ingenuity canonical pathway G Beta Gamma Signaling, z score [3] | Ingenuity canonical pathway mTOR Signaling, z score [3]
−0.32: z score: Concentration of hormone [2]
0.991: z score: Cell viability of tumor cell lines [7]
−1.799: z score: Differentiation of bone cells [2]
0.791: z score: Cell death [7]
−0.005: z score: Development of connective tissue cells [2]
1.492: z score: Cell movement of tumor cell lines [7]
−1.584: z score: Cell viability [2]
1.993: z score: Cell death of epithelial cells [7]
Activated: Diseases or functions annotation: Migration of cells [1] | Diseases or functions annotation: Quantity of connective tissue cells [1] | Diseases or functions annotation: Synthesis of hormone [1] | Diseases or functions annotation: Thrombus [1] | Diseases or functions annotation: Transport of molecule [1] | Ingenuity canonical pathway: Endothelin-1 Signaling [2] | Ingenuity canonical pathway: G Beta Gamma Signaling [2] | Ingenuity canonical pathway: Role of NFAT in Regulation of the Immune Response [2] | Ingenuity canonical pathway: Synaptic Long Term Depression [2] | Diseases or functions annotation: Vaso-occlusion [4] | Diseases or functions annotation: Quantity of carbohydrate [5] | Diseases or functions annotation: Quantity of metal [5] | Diseases or functions annotation: Synthesis of lipid [5] | Diseases or functions annotation: Weight gain [5] | Diseases or functions annotation: Apoptosis [6] | Diseases or functions annotation: Cell death [6] | Diseases or functions annotation: Edema [6] | Diseases or functions annotation: Secretion of molecule [6] | Diseases or functions annotation: Transport of molecule [6] | Ingenuity canonical pathway: Acute Phase Response Signaling [7] | Ingenuity canonical pathway: Cardiac Hypertrophy Signaling [7] | Ingenuity canonical pathway: Dendritic Cell Maturation [7] | Ingenuity canonical pathway: ERK/MAPK Signaling [7] | Ingenuity canonical pathway: Endothelin-1 Signaling [7] | Ingenuity canonical pathway: Fcγ Receptor-mediated Phagocytosis in Macrophages and Monocytes [7] | Ingenuity canonical pathway: GNRH Signaling [7] | Ingenuity canonical pathway: HMGB1 Signaling [7] | Ingenuity canonical pathway: IL-1 Signaling [7] | Ingenuity canonical pathway: IL-6 Signaling [7] | Ingenuity canonical pathway: IL-8 Signaling [7] | Ingenuity canonical pathway: ILK Signaling [7] | Ingenuity canonical pathway: Leukocyte Extravasation Signaling [7] | Ingenuity canonical pathway: Neuroinflammation Signaling Pathway [7] | Ingenuity canonical pathway: PI3K Signaling in B Lymphocytes [7] | Ingenuity canonical pathway: PKCθ Signaling in T Lymphocytes [7] | Ingenuity canonical pathway: Phospholipase C Signaling [7] | Ingenuity canonical pathway: Production of Nitric Oxide and Reactive Oxygen Species in Macrophages [7] | Ingenuity canonical pathway: Role of NFAT in Regulation of the Immune Response [7] | Ingenuity canonical pathway: Signaling by Rho Family GTPases [7] | Ingenuity canonical pathway: Synaptic Long Term Depression [7] | Ingenuity canonical pathway: mTOR Signaling [7]
1.966: z score: Cell survival [7]
0.816: Ingenuity canonical pathway Role of NFAT in Regulation of the Immune Response, z score [3]
−0.811: z score: Cell death of tumor cell lines [7]
−1.987: z score: Abdominal carcinoma [2]
−1.067: z score: Hematologic cancer [2]
−1.953: z score: Breast or colorectal cancer [7] | z score: Breast or ovarian cancer [7]
−1.91: z score: Liver tumor [2]
−1: Ingenuity canonical pathway Adrenomedullin signaling pathway, z score [3]
−1.396: z score: Digestive organ tumor [2]
0.415: z score: Quantity of metal [2]
−1.313: z score: Epithelial neoplasm [2]
−1.96: z score: Digestive system cancer [2]
1.58: z score: Cell cycle progression [7]
−1.981: z score: Tumorigenesis of epithelial neoplasm [2]
−0.941: z score: Apoptosis of tumor cell lines [7]
−1.026: z score: Breast or pancreatic cancer [7]
3.907: z score: Cell movement of myeloid cells [7]
−2: Ingenuity canonical pathway ERK5 Signaling, z score [3]
−2.128: z score: Frequency of tumor [2]
−0.152: z score: Developmental process of synapse [2] | z score: Formation of plasma membrane [2]
−1.614: z score: Incidence of tumor [2]
−1.192: z score: Large intestine neoplasm [2]
−2.118: z score: Bleeding [7]
−0.11: z score: Quantity of Ca^2+ [2]
−1.326: z score: Development of malignant tumor [2]
0.625: z score: Weight gain [2]
0.73: z score: Abdominal adenocarcinoma [7]
−1.214: z score: Pelvic tumor [2]
−1.066: z score: Metabolism of hormone [2]
2.297: z score: Cell movement [7]
−0.686: z score: Hematopoietic neoplasm [2]
0.061: z score: Abdominal neoplasm [7]
−1.029: z score: Gastrointestinal tumor [2]
−0.831: z score: Abdominal carcinoma [7]
−2.426: z score: Abdominal cancer [2]
0.49: z score: Quantity of carbohydrate [2]
Inhibited: Diseases or functions annotation: Necrosis [1] | Diseases or functions annotation: Non-hematologic malignant neoplasm [1] | Diseases or functions annotation: Pelvic tumor [1] | Diseases or functions annotation: Proliferation of blood cells [1] | Diseases or functions annotation: Proliferation of lymphatic system cells [1] | Diseases or functions annotation: Proliferation of lymphocytes [1] | Diseases or functions annotation: Quantity of blood cells [1] | Diseases or functions annotation: Quantity of bone [1] | Diseases or functions annotation: Quantity of cells [1] | Diseases or functions annotation: Quantity of leukocytes [1] | Diseases or functions annotation: Quantity of lymphatic system cells [1] | Diseases or functions annotation: Quantity of phagocytes [1] | Diseases or functions annotation: Rheumatic Disease [1] | Diseases or functions annotation: Solid tumor [1] | Diseases or functions annotation: Survival of organism [1] | Ingenuity canonical pathway: Adrenomedullin signaling pathway [2] | Ingenuity canonical pathway: ERK5 Signaling [2] | Ingenuity canonical pathway: NF-κB Signaling [2] | Ingenuity canonical pathway: Opioid Signaling Pathway [2] | Diseases or functions annotation: Development of malignant tumor [4] | Diseases or functions annotation: Digestive organ tumor [4] | Diseases or functions annotation: Frequency of tumor [4] | Diseases or functions annotation: Gastrointestinal tumor [4] | Diseases or functions annotation: Hematologic cancer [4] | Diseases or functions annotation: Hematopoietic neoplasm [4] | Diseases or functions annotation: Incidence of tumor [4] | Diseases or functions annotation: Large intestine neoplasm [4] | Diseases or functions annotation: Abdominal cancer [5] | Diseases or functions annotation: Abdominal carcinoma [5] | Diseases or functions annotation: Cell movement [5] | Diseases or functions annotation: Cell viability [5] | Diseases or functions annotation: Concentration of hormone [5] | Diseases or functions annotation: Development of connective tissue cells [5] | Diseases or functions annotation: Developmental process of synapse [5] | Diseases or functions annotation: Differentiation of bone cells [5] | Diseases or functions annotation: Differentiation of connective tissue cells [5] | Diseases or functions annotation: Digestive system cancer [5] | Diseases or functions annotation: Epithelial neoplasm [5] | Diseases or functions annotation: Formation of plasma membrane [5] | Diseases or functions annotation: Liver tumor [5] | Diseases or functions annotation: Malignant genitourinary solid tumor [5] | Diseases or functions annotation: Metabolism of hormone [5] | Diseases or functions annotation: Pelvic tumor [5] | Diseases or functions annotation: Quantity of Ca^2+ [5] | Diseases or functions annotation: Tumorigenesis of epithelial neoplasm [5] | Diseases or functions annotation: Tumorigenesis of tissue [5] | Diseases or functions annotation: Abdominal cancer [6] | Diseases or functions annotation: Abdominal carcinoma [6] | Diseases or functions annotation: Abdominal neoplasm [6] | Diseases or functions annotation: Behavior [6] | Diseases or functions annotation: Carcinoma [6] | Diseases or functions annotation: Cell death of antigen presenting cells [6] | Diseases or functions annotation: Cell death of immune cells [6] | Diseases or functions annotation: Cell death of tumor cell lines [6] | Diseases or functions annotation: Cell movement [6] | Diseases or functions annotation: Cell movement of tumor cell lines [6] | Diseases or functions annotation: Cell proliferation of leukocyte cell lines [6] | Diseases or functions annotation: Cellular homeostasis [6] | Diseases or functions annotation: Chemotaxis [6] | Diseases or functions annotation: Concentration of prostaglandin [6] | Diseases or functions annotation: Development of vasculature [6] | Diseases or functions annotation: Digestive organ tumor [6] | Diseases or functions annotation: Digestive system cancer [6] | Diseases or functions annotation: Epithelial neoplasm [6] | Diseases or functions annotation: Extracranial solid tumor [6] | Diseases or functions annotation: Feeding [6] | Diseases or functions annotation: Growth of tumor [6] | Diseases or functions annotation: Hematologic cancer [6] | Diseases or functions annotation: Incidence of tumor [6] | Diseases or functions annotation: Leukocyte migration [6] | Diseases or functions annotation: Leukopoiesis [6] | Diseases or functions annotation: Locomotion [6] | Diseases or functions annotation: Lymphocyte homeostasis [6] | Diseases or functions annotation: Lymphocytic cancer [6] | Diseases or functions annotation: Lymphocytic neoplasm [6] | Diseases or functions annotation: Lymphopoiesis [6] | Diseases or functions annotation: Lymphoproliferative disorder [6] | Diseases or functions annotation: Malignant solid tumor [6] | Diseases or functions annotation: Metabolism of hormone [6] | Diseases or functions annotation: Migration of cells [6] | Diseases or functions annotation: Necrosis [6] | Diseases or functions annotation: Neoplasia of leukocytes [6] | Diseases or functions annotation: Non-melanoma solid tumor [6] | Diseases or functions annotation: Proliferation of hematopoietic progenitor cells [6] | Diseases or functions annotation: Quantity of cells [6] | Diseases or functions annotation: Quantity of epithelial tissue [6] | Diseases or functions annotation: Quantity of neuroglia [6] | Diseases or functions annotation: Resorption of bone [6] | Diseases or functions annotation: Size of body [6] | Diseases or functions annotation: Synthesis of hormone [6] | Diseases or functions annotation: Transcription of RNA [6] | Diseases or functions annotation: Vasculogenesis [6] | Ingenuity canonical pathway: Adrenomedullin signaling pathway [7] | Ingenuity canonical pathway: Colorectal Cancer Metastasis Signaling [7] | Ingenuity canonical pathway: ERK5 Signaling [7] | Ingenuity canonical pathway: Osteoarthritis Pathway [7] | Ingenuity canonical pathway: PPAR Signaling [7] | Ingenuity canonical pathway: Protein Kinase A Signaling [7] | Ingenuity canonical pathway: Wnt/β-catenin Signaling [7] | Ingenuity canonical pathway: cAMP-mediated signaling [7]
0.64: z score: Cancer of secretory structure [7]
−0.474: z score: Abdominal cancer [7]
0.742: z score: Cancer of cells [7]
−0.998: z score: Tumorigenesis of tissue [2]
0.294: z score: Angiogenesis [7]
−0.537: z score: Malignant genitourinary solid tumor [2]
−0.403: z score: Carcinoma [7]
